Assay results as given in US20240238237A1, “CONJUGATED LINOLEIC ACID SUPPLEMENTATION FOR DISEASE TREATMENT” (VIRGINIA TECH INTELLECTUAL PROPERTIES, INC., priority 2021, published 2024).
“Also recorded” adds a separate entry of the source.

Legend:
[1] = tested on: WT, PWS (Snord116m+/p−) and PWS-KO (Snord116m−/p−) mice; assay: Spontaneous wheel running; assay type: in vivo, mouse; conditions: post-study
Method: For the spontaneous/motivated wheel running analysis, mice were placed in wire-bottom cages equipped with computer-monitored running wheels (Mini-mitter, Sunriver, OR, USA) for a total of 4 days, and then returned to their home cages. The first two days were not recorded as these were considered acclimation days, and the last 48 h were used for data collection. Mice had ad lib access to food and water during this time. For the pre-week, regular mouse chow was provided. For the post-week measurements, mice were supplied with their study diet during testing.

[2] = tested on: WT, PWS (Snord116m+/p−) and PWS-KO (Snord116m−/p−) mice; assay: In vivo plantarflexor torque-frequency and fatigue assays; parameters: species or system mouse
Method: The procedures for in vivo muscle testing were recently published. Briefly, at the end of the study, following both running wheel and metabolism measurements, body weight was determined, and mice were anesthetized with isoflurane (VetOne Fluriso, Boise, ID, USA) and placed on the temperature-controlled platform (40° C.) of the contractile apparatus (ASI), as described. The right hindlimb was shaved, hair remover applied (Nair Hair Remover Lotion, Ewing, NJ, USA) for 30 s, cleaned with 2-inch×2-inch gauze and tap water, and swabbed with povidone-iodine (Betadine Solution Swabsticks, Stamford, CT, USA). The knee was clamped so the tibia was 90° to the femur. The foot at 90° to the tibia was secured with clear Transpore surgical tape ([…], St. Paul, MN, USA) to the foot pedal of the Aurora Scientific (ASI: Aurora, ON, Canada) dual-mode servomotor. The mouse tail was taped (M3, St. Paul, MN, USA) loosely to the platform to keep it clear of the foot pedal. In vivo plantarflexor torque-frequency and fatigue assays were determined as described in Hamm et al.. Dynamic Muscle Control (DMC) software controlled the timing and frequency of the stimulations and collection of torque. Peak torque for each muscle contraction was determined using ASI Dynamic Muscle Analysis (DMA) software. Due to the body mass and fat mass reduction of the CLA groups in this study, torque was normalized separately by body mass (g) and the final measure of lean body mass (g).
In vivo plantar-flexor torque-frequency and fatigue curves were analyzed using Graph-Pad Prism 9.2.0. A two-way ANOVA was performed with multiple comparisons across groups. For torque-frequency figures, a nonlinear model was fit using the sigmoidal curve with variable slope.

[3] = tested on: cecal bacterial communities; assay: Cecum microbiome analysis (16S rRNA sequencing); assay type: in vivo, mouse
Method: Cecal samples were flash-frozen in liquid nitrogen and stored at −80° C. DNA was isolated from cecal content using a DNeasy PowerSoil Pro Kit (Qiagen #47014) and the TissueLyser II (Qiagen #85300). Fifty nanograms of genomic DNA was utilized for amplifi-cation of the V4 variable region of the 16S rRNA gene using 515F/806R primers. Forward and reverse primers were barcoded to accommodate multiplexing up to 384 samples per run as described by Kozich and colleagues. Paired-end sequencing (2×250 bp) of pooled amplicons was carried out using an Illumina Miseq platform with ˜30% PhiX DNA.
Demultiplexing, adapter trimming, and generating the fastq files were performed au-tomatically using the Miseq Reporter on the instrument computer. Bioinformatics analysis was then conducted using the QIIME 2 platform. Denoising was performed with an initial quality filtering followed by the Deblur algorithm. Representative amplicon sequence variants (ASVs) were used to generate a phylogenetic tree with FastTree, and taxonomy was assigned using a Naive Bayes classifier trained on the Greengenes 13_8 reference. To evaluate diversity metrics, samples were rarefied to an even depth of 4397 quality-filtered reads. Beta diversity was assessed using the weighted Unifrac distances and visualized using the principal coordinate analysis (PCoA) plot.
Statistical analyses for microbiome data were performed in R v4.0.5. Differences in beta diversity were evaluated using permutational multivariate analysis of variance (PERMANOVA) with 999 permutations and including the weighted Unifrac distance matrix. The Kruskal-Wallis test was used to evaluate alpha metrics and taxonomic differences and the Dunn's test was used to evaluate pairwise multiple comparisons, with p-values corrected for multiple testing using the false discovery rate (FDR) approach.

[4] = tested on: Normal, Snord116m+/p− (PWS model) and PWS KO mice; assay: Body weight, body fat and lean mass, 12-week feeding study, Example 2; assay type: in vivo, mouse; conditions: 12 weeks, CLA 0.5% per gram food
Description: Normal an d Snord116^m+/p− mice (PWS model), as well as mice with a complete deletion of Snord116 (PWS KO) were randomly divided into control or CLA-treatment groups. the diets (from Envigo/Harland-Teklad) were composed of 20% fat, and matched in all other components. Conjugated linoleic acid (Tonalin™, composed of 60%-90% of the cis-9, trans-11 and trans-10, cis-12 CLA isomers in a 50/50 ratio) was provided to the CLA-treatment groups to equal 0.5% per gram food intake.
Adult mice (aged 8-10 weeks) were housed individually, and given ad libitum access to either control or CLA food for 12 weeks. They were weighed weekly, and food intake, body fat, body lean mass, and rectal temperature were measured weekly.

[5] = tested on: C57Bl/6 WT and PWS mice; 129v/J WT and Nhlh2 KO mice; assay: Elevated plus maze anxiety symptoms, Example 2; assay type: in vivo, mouse
Method: Mice were tested, using a pre-post design and an elevated plus maze for anxiety symptoms FIG. 16A. Mice that are anxious generally will spend less time in the open arms, compared to those without anxiety. PWS patients show a number of neurobehavioural traits with the most commonly diagnosed phenotype being anxiety. In this study mice were placed in the middle of a plus-type maze, and entrance, as well as time spent in open or closed arms over a 5 minute period were tested. Mice were tested only once before entering the 12-week feeding stud, and once at the end of the 12-week feeding study. The percent time is reported. The data shown in FIG. 16B-16C show a comparison between pre-week test results, and the two treatment groups for each genotype in the post-week test. As shown in FIGS. 16B and 16C, the percent time in open arms was less for all animals. […] These findings can be translated to treatment of humans with anxiety.

conjugated linoleic acid [CLA] was tested, and the “24 h spontaneous wheel running” value [1] was “non-significant”, the Resistance to fatigue ([2]; PWS CLA and PWS-KO CLA vs control diet counterparts) was “lowered” and the “Plantarflexor torque output, PWS group” value ([2]; PWS, normalized to lean body mass) was “lowered torque output”. The Fatigue ([2]; WT and PWS mice on CLA diet vs most other genotypes and treatments) was “greater fatigue”, the “Plantarflexor torque output, WT mice” value ([2]; WT, regardless of normalization method) was “increased torque output” and the “Muscle function, overall” value ([2]; any group, vs WT baseline) was “not detrimental to muscle function”. The “Relative abundance of Cyanobacteria” value ([3]; CLA vs control diet, p=0.04) was “lower”, the Firmicutes phylum overall ([3]; H=3.74, p=0.59) was “not significantly affected” and the Sutterella sp. ([3]; H=13.8, p=0.02) was “significantly increased”. The Ruminococcus sp. ([3]; all genotypes) was “reduced”, the Turicibacter sp. ([3]; all genotypes, H=15.7, p=0.008) was “significantly reduced” and the “Relative abundance of the other phyla” value ([3]; between diets, p>0.09) was “similar”. The α-diversity metrics ([3]; control vs CLA, p≤0.02) was “differed”, the β-diversity measures ([3]; weighted Unifrac) was “significantly impacted” and the “Lean (muscle) mass” value [4] was “no changed; also recorded: did not change”. The Body fat ([4]; vs control diet) was “significant reduction”, the Body weight ([4]; vs control diet) was “significant reduction” and the “Percent time in open arms, 129v/J WT and Nhlh2 KO mice” value ([5]; 12 weeks CLA vs control diet) was “highly significant improvement”. For the same substance, the “Percent time in open arms, PWS mice” value ([5]; C57Bl/6 PWS mice, post-week) was “numeric improvement”.
